We go through one compound from US20100120887A1, “SUSTAINED RELEASE FORMULATION OF MELATONIN” (THE TRUSTEES OF COLUMBIA UNIVERSITY IN THE CITY OF NEW YORK, priority 2007, published 2010).

The assay in a line: Initial clinical evaluation, open clinical treatment of circadian sleep disorders and depression (case reports). It counts as in vivo, human. The text has this:
The present invention describes tablet formulation, in vitro and in vivo pharmacokinetics in a healthy, middle-aged subject group, and a range of potential uses. In the past three years, the present invention has been used in open clinical treatment of a variety of cases comprising circadian sleep disorders and depression. The strategy for treatment concentrates on serious cases, from which application to less severe cases—far more common population-wide—can be inferred. For example, in Delayed Sleep Phase Disorder (DSPD), the patient cannot fall asleep before wee hours of the night or early morning because of misalignment of the internal circadian timing system with external day and night. […] Melatonin is the chronobiotic par exemplar. Milder circadian misalignment is highly prevalent in the population, often starting in adolescence. A typical example is the worker who must maintain a 9-5 schedule but cannot fall asleep before 1 AM (“early insomnia”), leaving six hours for sleep availability, leading to daytime fatigue, disorientation, lapses of alertness, and weekend oversleeping that can trigger depressed mood. Such people comprise a primary market for the present invention, with the prospect of reduced reliance on sleeping pills.
Thus far, an ensemble of chronotherapeutic interventions has been used in clinical trials. […]

Regarding `COc1ccc2[nH]cc(CCNC(C)=O)c2c1` [melatonin, N-acetyl-5-methoxytryptamine], the “sleep onset and depressive symptoms under treatment” value (Case 2: seasonal depression, sleep not before 1 AM, melatonin at 6:30 PM plus light therapy 45 minutes) was “go to sleep at 11:30 PM with remission of depressive symptoms”. In addition, the “sleep onset under treatment” value (Case 3: history of seasonal depression, melatonin around 9 PM plus intermittent light therapy) was “able to sleep at midnight without effort”.
